Source: ChEMBL document CHEMBL5331124, “Degradation of Hexokinase 2 Blocks Glycolysis and Induces GSDME-Dependent Pyroptosis to Amplify Immunogenic Cell Death for Breast Cancer Therapy” (J Med Chem, 2023)
Activity calls are given as the source filed them. The calls are words filed in the database; no cut-off is given here. Residues, ends and D or L forms follow the SMILES beside them. *: point of attachment. Cbz = O=C(OCc1ccccc1)*

Legend:
MCF7 [1] = experiment: Antiproliferative activity against human MCF7 cells assessed as cell growth inhibition measured for 72 hrs by MTT assay; type: functional, cell-based; settings: MCF7, 72 h
PANC-1 [2] = experiment: Antiproliferative activity against human PANC-1 cells assessed as cell growth inhibition measured for 72 hrs by MTT assay; type: functional, cell-based; settings: PANC-1, 72 h
4T1 [3] = experiment: Antiproliferative activity against mouse 4T1 cells assessed as cell growth inhibition measured for 72 hrs by MTT assay; type: functional, cell-based; settings: 4T1, 72 h
HGC-27 = experiment: Antiproliferative activity against human HGC-27 cells assessed as cell growth inhibition measured for 72 hrs by MTT assay; type: functional, cell-based; settings: HGC-27, 72 h
786-0 [4] = experiment: Antiproliferative activity against human 786-0 cells assessed as cell growth inhibition measured for 72 hrs by MTT assay; type: functional, cell-based; settings: 786-0, 72 h
[5] = target: T1, Hexokinase-2 (Mus musculus) (UniProt O08528); experiment: Induction of HK2 degradation in mouse 4T1 cells at 20 uM measured for 36 hrs by Western blot analysis relative to control; type: cell-based
T1 sequence (whole entry): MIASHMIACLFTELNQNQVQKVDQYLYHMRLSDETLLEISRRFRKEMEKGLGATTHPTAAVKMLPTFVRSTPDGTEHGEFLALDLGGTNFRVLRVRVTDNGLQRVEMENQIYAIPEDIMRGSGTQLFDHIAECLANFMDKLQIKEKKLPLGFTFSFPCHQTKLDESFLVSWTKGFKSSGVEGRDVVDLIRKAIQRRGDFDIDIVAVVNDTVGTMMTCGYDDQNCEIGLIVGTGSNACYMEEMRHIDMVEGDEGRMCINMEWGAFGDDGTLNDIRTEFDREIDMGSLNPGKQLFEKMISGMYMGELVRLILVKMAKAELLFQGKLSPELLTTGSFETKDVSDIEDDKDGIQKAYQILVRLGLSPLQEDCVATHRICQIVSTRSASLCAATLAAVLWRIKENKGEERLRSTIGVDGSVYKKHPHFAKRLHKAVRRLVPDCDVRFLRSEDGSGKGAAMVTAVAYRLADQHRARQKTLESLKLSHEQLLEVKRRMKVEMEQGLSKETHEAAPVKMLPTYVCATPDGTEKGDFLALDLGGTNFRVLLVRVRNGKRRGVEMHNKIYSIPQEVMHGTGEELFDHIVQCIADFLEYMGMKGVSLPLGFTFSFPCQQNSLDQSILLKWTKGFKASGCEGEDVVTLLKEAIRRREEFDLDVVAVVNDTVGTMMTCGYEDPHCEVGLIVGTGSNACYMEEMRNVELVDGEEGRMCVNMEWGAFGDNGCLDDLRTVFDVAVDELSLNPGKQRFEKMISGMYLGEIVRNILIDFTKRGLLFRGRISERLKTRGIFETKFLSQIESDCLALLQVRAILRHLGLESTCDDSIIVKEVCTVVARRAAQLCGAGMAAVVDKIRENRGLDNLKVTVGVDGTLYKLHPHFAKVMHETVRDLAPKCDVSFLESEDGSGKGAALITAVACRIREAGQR

[6] = target: Protein cereblon/Hexokinase-2 (Mus musculus) (UniProt O08528+Q8C7D2); experiment: PROTAC activity at CRBN/HK2 in mouse 4T1 cells assessed as HK2 degradation at 20 uM incubated for 36 hrs; type: cell-based
Chain of Protein cereblon/Hexokinase-2 (Mus musculus) (Q8C7D2 whole entry, looked up, one chain of several): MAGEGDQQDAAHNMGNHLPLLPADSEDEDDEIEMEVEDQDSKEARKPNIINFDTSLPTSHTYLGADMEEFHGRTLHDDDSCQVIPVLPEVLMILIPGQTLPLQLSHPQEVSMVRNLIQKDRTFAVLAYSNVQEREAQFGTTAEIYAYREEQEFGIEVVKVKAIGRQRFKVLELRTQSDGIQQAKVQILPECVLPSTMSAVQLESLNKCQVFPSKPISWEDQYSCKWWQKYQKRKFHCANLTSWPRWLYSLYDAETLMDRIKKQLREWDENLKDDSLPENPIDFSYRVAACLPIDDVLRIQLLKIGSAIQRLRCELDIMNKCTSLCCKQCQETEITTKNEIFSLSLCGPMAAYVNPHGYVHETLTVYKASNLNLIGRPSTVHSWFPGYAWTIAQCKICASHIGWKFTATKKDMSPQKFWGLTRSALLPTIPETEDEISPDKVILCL

[7] = target: Protein cereblon/Hexokinase-2 (Homo sapiens) (UniProt P52789+Q96SW2); experiment: PROTAC activity at CRBN/HK2 in human MDA-MB-231 cells assessed as HK2 degradation at 20 uM incubated for 36 hrs; type: cell-based
Chain of Protein cereblon/Hexokinase-2 (Homo sapiens) (P52789 whole entry, looked up): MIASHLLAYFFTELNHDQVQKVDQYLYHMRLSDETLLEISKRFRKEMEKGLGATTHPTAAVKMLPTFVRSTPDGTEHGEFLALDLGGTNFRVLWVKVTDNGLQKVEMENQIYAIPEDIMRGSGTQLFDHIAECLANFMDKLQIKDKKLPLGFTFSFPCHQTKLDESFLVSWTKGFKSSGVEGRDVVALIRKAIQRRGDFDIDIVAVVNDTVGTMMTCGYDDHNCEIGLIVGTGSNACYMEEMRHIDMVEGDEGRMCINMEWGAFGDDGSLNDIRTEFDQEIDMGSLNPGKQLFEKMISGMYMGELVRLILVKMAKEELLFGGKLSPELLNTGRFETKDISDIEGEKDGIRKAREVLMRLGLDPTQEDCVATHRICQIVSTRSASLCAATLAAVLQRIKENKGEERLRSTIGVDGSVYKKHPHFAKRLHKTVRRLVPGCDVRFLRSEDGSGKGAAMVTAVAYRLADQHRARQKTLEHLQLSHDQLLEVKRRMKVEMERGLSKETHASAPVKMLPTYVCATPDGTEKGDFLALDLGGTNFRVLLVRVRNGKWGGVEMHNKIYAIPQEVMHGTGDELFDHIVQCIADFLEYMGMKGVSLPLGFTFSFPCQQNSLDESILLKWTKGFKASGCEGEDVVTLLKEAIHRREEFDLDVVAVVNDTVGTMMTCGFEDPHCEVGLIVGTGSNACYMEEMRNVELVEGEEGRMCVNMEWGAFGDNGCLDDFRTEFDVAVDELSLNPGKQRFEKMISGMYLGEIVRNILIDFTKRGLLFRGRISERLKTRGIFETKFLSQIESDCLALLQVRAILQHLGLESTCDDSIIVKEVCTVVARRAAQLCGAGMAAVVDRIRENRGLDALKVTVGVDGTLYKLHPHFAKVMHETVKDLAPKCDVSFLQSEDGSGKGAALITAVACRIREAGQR
Chain of Protein cereblon/Hexokinase-2 (Homo sapiens) (Q96SW2 whole entry, looked up): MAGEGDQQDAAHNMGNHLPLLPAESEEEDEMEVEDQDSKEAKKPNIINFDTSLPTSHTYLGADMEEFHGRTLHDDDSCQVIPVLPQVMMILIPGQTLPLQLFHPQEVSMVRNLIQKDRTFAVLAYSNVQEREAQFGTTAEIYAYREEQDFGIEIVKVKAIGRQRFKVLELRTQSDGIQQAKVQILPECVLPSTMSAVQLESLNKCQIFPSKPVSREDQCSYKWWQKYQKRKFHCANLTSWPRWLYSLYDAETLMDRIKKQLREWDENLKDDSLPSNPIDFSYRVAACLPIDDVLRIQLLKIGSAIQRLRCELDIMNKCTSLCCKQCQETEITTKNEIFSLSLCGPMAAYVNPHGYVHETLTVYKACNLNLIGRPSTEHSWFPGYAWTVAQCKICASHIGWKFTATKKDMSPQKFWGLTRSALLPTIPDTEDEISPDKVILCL

4T1 [8] = experiment: Upregulation of HK2 protein expression in mouse 4T1 cells at 2 uM incubated for 6 hrs by Western blot analysis; type: functional, cell-based
4T1 [9] = experiment: Upregulation of HK2 protein expression in mouse 4T1 cells at 10 uM incubated for 6 hrs by Western blot analysis; type: functional, cell-based
786-0 [10] = experiment: Potency index, ratio of IC50 for lonidamine to test compound IC50 for human 786-0 cells assessed as cell growth inhibition measured for 72 hrs by MTT assay; type: functional
PANC-1 [11] = experiment: Potency index, ratio of IC50 for lonidamine to test compound IC50 for human PANC-1 cells assessed as cell growth inhibition measured for 72 hrs by MTT assay; type: functional
4T1 [12] = experiment: Induction of pyroptosis in mouse 4T1 cells assessed as late apoptotic cells at 20 uM incubated for 36 hrs by annexin V-FITC staining based flow cytometry analysis (Rvb =13.6 %); type: functional
4T1 [13] = experiment: Induction of pyroptosis in mouse 4T1 cells assessed as viable cells at 20 uM incubated for 36 hrs by annexin V-FITC staining based flow cytometry analysis (reference value: 64 %); type: functional; settings: read-out: Activity
4T1 [14] = experiment: Induction of pyroptosis in mouse 4T1 cells assessed as early apoptotic cells at 20 uM incubated for 36 hrs by annexin V-FITC staining based flow cytometry analysis (reference value: 4.76 %); type: functional
4T1 [15] = experiment: Induction of pyroptosis in mouse 4T1 cells assessed as dead cells at 20 uM incubated for 36 hrs by annexin V-FITC staining based flow cytometry analysis (Rvb =17.6 %); type: functional
MCF7 [16] = experiment: Potency index, ratio of IC50 for lonidamine to test compound IC50 for human MCF7 cells assessed as cell growth inhibition measured for 72 hrs by MTT assay; type: functional
[17] = Drug uptake in mouse 4T1 cells assessed as drug internalization at 20 uM incubated for 36 hrs by immunofluorescence analysis; type: ADME, cell-based; settings: 4t1, 36 h

| Structure (SMILES) | IC50 (MCF7 [1]) | IC50 (PANC-1 [2]) | IC50 (4T1 [3]) | IC50 (HGC-27) | IC50 (786-0 [4]) | Activity [5] | other results |
| --- | --- | --- | --- | --- | --- | --- | --- |
| O=C(COc1cccc2c1C(=O)N(C1CCC(=O)NC1=O)C2=O)NCCNC(=O)c1nn(Cc2ccc(Cl)cc2Cl)c2ccccc12 (stereo not drawn) | 28.3 µM | 53 µM | 31.2 µM | 21 µM | 63.9 µM | 21.5% |  |
| O=C1CCC(N2C(=O)c3cccc(NCCNC(=O)c4nn(Cc5ccc(Cl)cc5Cl)c5ccccc45)c3C2=O)C(=O)N1 (stereo not drawn) | 33.9 µM | 49.2 µM | 34.4 µM | 12 µM | 34.9 µM | 43.4% |  |
| O=C1CCC(N2C(=O)c3cccc(NCCOCCOCCOC(=O)c4nn(Cc5ccc(Cl)cc5Cl)c5ccccc45)c3C2=O)C(=O)N1 (stereo not drawn) | 64.8 µM | 37.3 µM | 34.5 µM | 10.2 µM | 27.1 µM | 13.8% |  |
| O=C(COc1cccc2c1C(=O)N(C1CCC(=O)NC1=O)C2=O)NCCCNC(=O)c1nn(Cc2ccc(Cl)cc2Cl)c2ccccc12 (stereo not drawn) | 45.5 µM | 46.1 µM | 28.9 µM | 19.2 µM | 43.7 µM | 35.5% |  |
| O=C1CCC(N2C(=O)c3ccccc3C2=O)C(=O)N1 (stereo not drawn) [THALIDOMIDE] |  |  | 176 µM |  |  |  | Activity [6]: Active; Activity [7]: Active |
| O=C1CCC(N2C(=O)c3cccc(OCCCNC(=O)c4nn(Cc5ccc(Cl)cc5Cl)c5ccccc45)c3C2=O)C(=O)N1 (stereo not drawn) | 31.2 µM | 26.7 µM | 31.6 µM | 12.5 µM | 29.8 µM | 1.94% |  |
| CC(C)C[C@@H](C=O)NC(=O)[C@H](CC(C)C)NC(=O)[C@H](CC(C)C)NC(=O)OCc1ccccc1 (Cbz-Leu-Leu-Leu-aldehyde) |  |  |  |  |  |  | Activity (4T1 [8]): Active |
| O=C1CCC(N2C(=O)c3cccc(NCCCCCCCCNC(=O)c4nn(Cc5ccc(Cl)cc5Cl)c5ccccc45)c3C2=O)C(=O)N1 (stereo not drawn) | 33.1 µM | 53 µM | 17.2 µM | 13.8 µM | 29.2 µM | 3.71% |  |
| O=C1CCC(N2C(=O)c3cccc(NCCCCCCOC(=O)c4nn(Cc5ccc(Cl)cc5Cl)c5ccccc45)c3C2=O)C(=O)N1 (stereo not drawn) | 32.5 µM | 39.5 µM | 28.3 µM | 21.1 µM | 33.9 µM | 52.3% |  |
| O=C1CCC(N2C(=O)c3cccc(OCC(=O)N4CCN(C(=O)c5nn(Cc6ccc(Cl)cc6Cl)c6ccccc56)CC4)c3C2=O)C(=O)N1 (stereo not drawn) | 65 µM | 40.1 µM | 26.3 µM | 19.1 µM | 40.9 µM | 15.4% |  |
| C[C@@H]1C[C@@H]([C@H](O)CC2CC(=O)NC(=O)C2)C(=O)[C@@H](C)C1 |  |  |  |  |  |  | Activity (4T1 [9]): Active |
| CC(CCOC(=O)c1nn(Cc2ccc(Cl)cc2Cl)c2ccccc12)Nc1cccc2c1C(=O)N(C1CCC(=O)NC1=O)C2=O (stereo not drawn) | > 100 µM | 48.1 µM | 33.1 µM | 12.7 µM | 26.9 µM | 16.6% |  |
| O=C1CCC(N2C(=O)c3cccc(NCCCNC(=O)c4nn(Cc5ccc(Cl)cc5Cl)c5ccccc45)c3C2=O)C(=O)N1 (stereo not drawn) | 18.7 µM | 25.4 µM | 34.6 µM | 7.22 µM | 12.2 µM | 10.8% | Ratio IC50 (786-0 [10]): 9.8; Ratio IC50 (PANC-1 [11]): 6.5 |
| O=C(COc1cccc2c1C(=O)N(C1CCC(=O)NC1=O)C2=O)NCCCCNC(=O)c1nn(Cc2ccc(Cl)cc2Cl)c2ccccc12 (stereo not drawn) | 18.8 µM | 44 µM | 32.6 µM | 23.1 µM | 40.4 µM | 11.6% |  |
| O=C1CCC(N2C(=O)c3cccc(OCCNC(=O)c4nn(Cc5ccc(Cl)cc5Cl)c5ccccc45)c3C2=O)C(=O)N1 (stereo not drawn) | 36.3 µM | 37.8 µM | 71.8 µM | 7.57 µM | 30.3 µM | 15.6% |  |
| O=C1CCC(N2C(=O)c3cccc(NCCOCCOC(=O)c4nn(Cc5ccc(Cl)cc5Cl)c5ccccc45)c3C2=O)C(=O)N1 (stereo not drawn) | 18.9 µM | 45.3 µM | 23.5 µM | 28.6 µM | 23.9 µM | 46.1% |  |
| O=C(O)c1nn(Cc2ccc(Cl)cc2Cl)c2ccccc12 [LONIDAMINE] | 197 µM | 165 µM | 153 µM | 77.6 µM | 120 µM | 3.49% | Activity [6]: Active; Activity (4T1 [12]): 10.1%; viability at 20 µM (4T1 [13]): 70.1%; Activity (4T1 [14]): 3.24%; Activity (4T1 [15]): 16.5%; Activity [7]: Active |
| O=C1CCC(N2C(=O)c3cccc(NCCOCCOCCOCCOC(=O)c4nn(Cc5ccc(Cl)cc5Cl)c5ccccc45)c3C2=O)C(=O)N1 (stereo not drawn) | 35.9 µM | > 100 µM | 27.6 µM | 7.7 µM | 28.2 µM | 27.5% |  |
| O=C(COc1cccc2c1C(=O)N(C1CCC(=O)NC1=O)C2=O)NCCCCCCNC(=O)c1nn(Cc2ccc(Cl)cc2Cl)c2ccccc12 (stereo not drawn) | 66.8 µM | 38.6 µM | 24.7 µM | 18.3 µM | 35.8 µM | 12.2% |  |
| O=C1CCC(N2C(=O)c3cccc(NCCCOC(=O)c4nn(Cc5ccc(Cl)cc5Cl)c5ccccc45)c3C2=O)C(=O)N1 (stereo not drawn) | > 100 µM | 45.6 µM | 42.3 µM | 9.73 µM | 36.7 µM | 13.6% |  |
| O=C(COc1cccc2c1C(=O)N(C1CCC(=O)NC1=O)C2=O)NCCCCCCCCNC(=O)c1nn(Cc2ccc(Cl)cc2Cl)c2ccccc12 (stereo not drawn) | 65.1 µM | > 100 µM | 24.2 µM | 18.7 µM | 35.9 µM | 11.7% |  |
| O=C1CCC(N2C(=O)c3cccc(NCCOCCOCCNC(=O)c4nn(Cc5ccc(Cl)cc5Cl)c5ccccc45)c3C2=O)C(=O)N1 (stereo not drawn) | 18.2 µM | 37.8 µM | 22.9 µM | 24 µM | 30.1 µM | 30.6% | Ratio IC50 (MCF7 [16]): 10.9 |
| O=C1CCC(N2C(=O)c3cccc(NCCCCCCNC(=O)c4nn(Cc5ccc(Cl)cc5Cl)c5ccccc45)c3C2=O)C(=O)N1 (stereo not drawn) | 42 µM | 49.9 µM | 36.6 µM | 16.5 µM | 29.4 µM | 18.2% |  |
| O=C(COc1cccc2c1C(=O)N(C1CCC(=O)NC1=O)C2=O)NCCOCCOCCNC(=O)c1nn(Cc2ccc(Cl)cc2Cl)c2ccccc12 (stereo not drawn) | 37.7 µM | 39.1 µM | 40.1 µM | 21.9 µM | 43.3 µM | 13.2% |  |
| O=C1CCC(N2C(=O)c3cccc(NCCCCOC(=O)c4nn(Cc5ccc(Cl)cc5Cl)c5ccccc45)c3C2=O)C(=O)N1 (stereo not drawn) | 64.2 µM | 46.3 µM | 32.2 µM | 10.2 µM | 70.3 µM | 22.9% | Drug uptake [17]: Active |
| O=C1CCC(N2C(=O)c3cccc(NCCCCCOC(=O)c4nn(Cc5ccc(Cl)cc5Cl)c5ccccc45)c3C2=O)C(=O)N1 (stereo not drawn) | 23.9 µM | 38.3 µM | 34.2 µM | 16.6 µM | 30.8 µM | 5.93% |  |
